Key:
[1] = test system: Mycobacterium avium complex (MAC); test: Multicenter, randomized, placebo controlled clinical trial: prevention or delay of MAC infection in AIDS patients; assay type: in vivo, human
[2] = test system: atypical mycobacterial infection; test: Same clinical trial: occurrence of atypical mycobacterial infection; assay type: in vivo, human; settings: rifabutin 300 mg/day; one patient on the placebo arm developed it
M. tuberculosis = test: Same clinical trial: occurrence of M. tuberculosis infections; assay type: in vivo, human; settings: rifabutin 300 mg/day; three patients on the placebo arm developed M. tuberculosis infections
Description: The efficacy of rifabutin on the prevention of MAC disease in HIV positive patients having a CD4 count of ≦200/mm³ was assessed in a large multicenter controlled trial in the United States.
Five hundred ninety (590) patients with CD4 counts ≦200/mm³; and with no clinical evidence of MAC infection (as determined by two blood cultures) were randomly assigned to receive either rifabutin monotherapy (300 mg/day) or placebo. Nine of these patients, five in the rifabutin group and four in the placebo group, who were enrolled with presumptive negative evidence of MAC blood cultures were subsequently found to have had MAC bacteremia at baseline and were excluded from the study. Fifty-six of the 581 patients who had confirmed negative cultures at baseline developed MAC infection after having enrolled in the study. Eighteen of those 56 patients were in the rifabutin group and the other 38 were in the placebo group. After excluding seven patients from each group who were considered to be inevaluable, the treatment groups were compared with respect to the incidence of MAC infection; the observed difference was highly statistically significant (p=0.002, Chi-squared test).
Three patients on the placebo arm of the study developed M. tuberculosis infections (other than MAC) while no patients receiving rifabutin developed tuberculosis. […]

[3] = cited from earlier work

With `CO[C@H]1/C=C/O[C@@]2(C)Oc3c(C)c(O)c4c(c3C2=O)C2=NC3(CCN(CC(C)C)CC3)NC2=C(NC(=O)/C(C)=C\C=C\[C@H](C)[C@H](O)[C@@H](C)[C@@H](O)[C@@H](C)[C@H](OC(C)=O)[C@@H]1C)C4=O` [rifabutin, 4-dioxo-3,4-[2-spiro-(N-isobutyl-4-piperidyl)-2,5-dihydro-1H-imidazo]-rifamycin S] the “Patients who developed MAC infection after having enrolled in the study” value ([1]; HIV positive patients, CD4 ≦200/mm³, rifabutin monotherapy 300 mg/day oral, of 581 patients with confirmed negative cultures at baseline, before excluding inevaluable patients) was “Eighteen”, the “Time of MAC infection in patients who got a MAC infection” value ([1]; analysis by Kaplan/Meier Methodology, compared with placebo) was “significantly later than patients on placebo” and the “Likelihood of placebo patients to die or to experience a MAC event relative to patients receiving rifabutin” value ([1]; at any point in time, on average, Kaplan/Meier analysis) was 2.3 times. The “Number of: Patients without MAC” value ([1]; evaluable patients, rifabutin 300 mg/day, group total 280) was 269, the “Number of: Patients with MAC” value ([1]; evaluable patients, rifabutin 300 mg/day, group total 280, vs placebo x^2 = 9.76, P ≅ 0.002) was 11 and the “Patients who developed atypical mycobacterial infection” value [2] was “no patients”. The “Patients who developed tuberculosis” value (M. tuberculosis) was “no patients”, the Solubility in chloroform ([3]; chloroform) was “soluble” and the Solubility in methanol ([3]; methanol) was “soluble”. The Solubility in water ([3]; water) was “very slightly soluble”.
